From PMC6269938, “Natural Aristolactams and Aporphine Alkaloids as Inhibitors of CDK1/Cyclin B and DYRK1A” (Molecules, 2013)
Entries after “also recorded” stand apart in the source; their conditions may differ. Where two headings read alike, the source gives them in different places.

Legend:
DYRK1A = DYRK1A (Rattus norvegicus, UniProt Q63470); test: DYRK1A kinase inhibition assay; assay type: biochemical; conditions: for DYRK1A inhibition at 30 µM, in words: concentration of 30 µM; for IC50 / DYRK1A (IC50 in μM): mean of triplicates, variation max 20%, ATP 15 µM, 30 °C
Description: (§1) Values were background subtracted, and activities were calculated as pmoles of phosphate incorporated during a 10 min incubation. […] Controls were performed with appropriate dilutions of DMSO.
DYRK1A (rat, recombinant, expressed in E. coli as a GST fusion protein) was purified by affinity chromatography on glutathione-agarose and assayed as described.

CDK1/Cyclin B = CDK1/Cyclin B kinase inhibition assay; assay type: biochemical, starfish (Marthasterias glacialis)
Description: as §1
CDK1/Cyclin B was extracted in homogenisation buffer from M phase starfish (Marthasterias glacialis) oocytes and purified by affinity chromatography on p9^CKShs1-Sepharose beads, from which it was eluted with free p9^CKShs1 as previously described. […] After a 10 min incubation at 30 °C, 25 µL aliquots of supernatant were spotted onto P81 phosphocellulose paper and treated as described above.

CDK2 = test system: CDK2; parameters: method as in PMID 20097074, PMID 20097066; conditions: previous studies; cited from earlier work
CDK4 = test system: CDK4; parameters: method as in PMID 20097074, PMID 20097066; conditions: previous studies; cited from earlier work
Aurora 2 kinase = biological target: Aurora 2 kinase; parameters: method as in PMID 20097074, PMID 20097066; conditions: previous studies; cited from earlier work
cancer cell = test system: cancer cell; parameters: method as in PMID 19801998; conditions: cited from earlier work
[1] = test system: polo-box domain of Polo-like kinase 1; parameters: method as in PMID 19801998; conditions: cited from earlier work
human lung cancer cells = test system: human lung cancer cells; parameters: method as in PMID 15473647; conditions: concentration of 20 μM; cited from earlier work
human colon cancer cells = test system: human colon cancer cells; parameters: method as in doi:10.1016/j.procbio.2012.05.018; conditions: cited from earlier work
[2] = mean of triplicates, variation max 20%, ATP 15 µM, histone H1, 30 °C

SMILES	DYRK1A inhibition at 30 µM, in words (DYRK1A)	IC50 (DYRK1A)	CDK1/Cyclin B inhibition at 30 µM, in words (CDK1/Cyclin B; concentration of 30 µM)	IC50 (CDK1/Cyclin B; [2])	further results
COc1cc2c3c(c1O)-c1c(ccc(OC)c1OC)CC3N(C)CC2 (single isomer, unassigned; (+)) [Compound 6, (+)-corydine]	inactive	> 30 µM	inactive	> 30 µM	–
COc1ccc2c(c1O)-c1c3c(cc4c1C(C2)N(C)CC4)OCO3 (single isomer, unassigned; (+)) [Compound 9, (+)-bulbocapnine]	inactive	> 30 µM	inactive	> 30 µM	–
COc1ccc2c(c1O)-c1c(OC)c(O)cc3c1C(C2)N(C)CC3 (single isomer, unassigned; (+)) [Compound 10, (+)-N-methyllindcarpine]	inactive	> 30 µM	inactive	> 30 µM	–
COc1cc2c(cc1O)CC1NCCc3cc4c(c-2c31)OCO4 (single isomer, unassigned; (+)) [Compound 11, (+)-actinodaphnine]	inactive	> 30 µM	inactive	> 30 µM	–
COc1c2c(cc3c1-c1c4c(cc5c1C(C3)NCC5)OCO4)OCO2 (single isomer, unassigned; (+)) [Compound 12, (+)-11-methoxynorneolistine]	–	–	–	–	CDK1/Cyclin B inhibition at 30 µM, in words (CDK1/Cyclin B): did not inhibit; also recorded: unable to inhibit; IC50 (CDK1/Cyclin B): > 30 µM
COc1cc2c3c(c1OC)-c1ccccc1CC3NCC2 (single isomer, unassigned; (+)) [Compound 15, (+)-N-nornuciferine]	–	4.2 µM	unable to inhibit	> 30 µM	CDK1/Cyclin B inhibition at 30 µM, in words (CDK1/Cyclin B; concentration of 30 µM, listed as N-nornuciferine (15)): did not inhibit
COc1cc2c(cc1O)CC1c3c(cc(O)c(OC)c3-2)CCN1C (single isomer, unassigned; (+)) [Compound 16, (+)-boldine]	inactive	> 30 µM	inactive	> 30 µM	–
COc1cc([C@H]2OC[C@@H]3C(c4cc(OC)c(O)c(OC)c4)OC[C@H]23)ccc1O (single isomer, unassigned; (-)) [Compound 5, (−)-medioresinol]	–	0.1 µM	–	1.3 µM	DYRK1A (IC50 in μM) (DYRK1A): submicromolar
CN1CCc2cc3c(c4c2C1Cc1ccccc1-4)OCO3 (single isomer, unassigned; (-)) [Compound 7, (−)-roemerine]	inactive	15 µM	unable to inhibit; also recorded: inactive	> 30 µM	–
COc1c2c3c(c(OC)c1OC)-c1ccccc1CC3NCC2 (single isomer, unassigned; (-)) [Compound 14, (−)-O-methylisopiline]	inactive	> 30 µM	inactive	> 30 µM	–
COc1c(O)cc2c3c(cc4ccccc4c13)NC2=O [Compound 1, aristolactam AII]	–	–	inactive	> 30 µM	–
COc1cc2c3c(cc4c(O)cccc4c3c1OC)NC2=O [Compound 3, velutinam]	–	0.6 µM	–	1.5 µM	DYRK1A (IC50 in μM) (DYRK1A): submicromolar
COc1c(O)cc2c3c(cc4ccc(O)cc4c13)NC2=O [Compound 4, aristolactam AIIIA]	–	0.08 µM	–	0.2 µM	DYRK1A (IC50 in μM) (DYRK1A): submicromolar; IC50 (CDK2): 0.14 µM; IC50 (CDK4): 1.42 µM; IC50 (Aurora 2 kinase): 2.14 µM; cancer cell proliferation, mitotic arrest at G2/M phase, apoptosis (cancer cell): could inhibit cancer cell proliferation; ligand targeting the polo-box domain of Polo-like kinase 1 [1]: new ligand
O=C1c2ccccc2-c2c3c(cc4ccnc1c24)OCO3 [Compound 8, liriodenine]	–	3.1 µM	unable to inhibit	> 30 µM	CDK1/Cyclin B inhibition at 30 µM, in words (CDK1/Cyclin B; concentration of 30 µM, listed as Liriodenine (8)): did not inhibit; apoptosis induction by inhibiting CDK1/Cyclin B kinase activity, G2/M cell cycle arrest (human lung cancer cells): induced apoptosis; growth of human colon cancer cells, G1/S cell cycle arrest (human colon cancer cells): inhibited the growth
COc1cc2ccnc3c2c(c1OC)-c1ccccc1C3=O [Compound 13, lysicamine]	–	2.4 µM	unable to inhibit	> 30 µM	CDK1/Cyclin B inhibition at 30 µM, in words (CDK1/Cyclin B; concentration of 30 µM, listed as lysicamine (13)): did not inhibit
